These are literature values, as cited in US7718642B2, “AIDS prophylactic lubricating composition” (priority 1993, dated 2010).

The subject of series [1] is viruses.
For series [2] the following is noted: in vivo.
For series [3] the following is noted: previous studies (Int J STD & AIDS); read-out: CC50 value (50% toxic dose).
The subject of series [4] is sperm cells. Particulars: diffusion into cervical mucous.
Series [5] has as its system HIV.
Series [6] relates to HIV. The settings on record: used as contraceptive during sexual relations; J. Kreiss et al, JAMA 1992.

`[H]/N=C(\N/C(=N/[H])NCCCCCCNC(=N)NC(=N)Nc1ccc(Cl)cc1)Nc1ccc(Cl)cc1` [chlorhexidine]: in series [1], the “Concentration that effectively destroys the envelope of viruses” value was “above 0.1%”. Also, in series [2], the Undesirable side effects result was “does not produce any undesirable side effects”. Further, the CC50 (as a rule, the concentration that lowers cell viability or growth by half) in series [3] was 1.3 µM. Also, the “Concentration that restricts penetration of sperm cells and causes loss of mobility” value in series [4] was “above 0.1%”. For the same compound, in series [5] (CC50/IC50, previous studies (Int J STD & AIDS)), the selectivity value is 5.2. In addition, the IC50 (as a rule, the point on the concentration scale where inhibition reaches its midpoint) in series [5] (previous studies (Int J STD & AIDS), read-out: IC50 value (50% inhibitory dose)) was 0.25 µM.
As for nonoxynol-9, the “Prevention of HIV transmission” value in series [6] is on record as “did not prevent HIV transmission”.
